According to PMC7038993 (Nucleic Acids Research, 2020):

How the values were obtained:
[1] = molecular target: Murine eukaryotic translation initiation factor 4E (eIF4E, residues 28–217); meIF4E (Mus musculus, UniProt P63073); assay: time-synchronized fluorescence quenching titration; format: binding
eIF4E (28-217) = eIF4E (28-217) (Mus musculus (murine), UniProt P63073 28-217); assay: fluorescence quenching titration
eIF4E (28-217), sequence (P63073 28-217): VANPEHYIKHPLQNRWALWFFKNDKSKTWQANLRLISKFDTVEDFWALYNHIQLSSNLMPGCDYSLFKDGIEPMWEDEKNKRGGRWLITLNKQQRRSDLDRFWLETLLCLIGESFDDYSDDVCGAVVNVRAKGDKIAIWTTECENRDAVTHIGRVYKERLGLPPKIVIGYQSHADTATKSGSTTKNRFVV

Murine eukaryotic translation initiation factor 4E (eIF4E, residues 28–217); meIF4E, sequence (P63073 28-217): as above

Molecule | Kd [1] | Kd (eIF4E (28-217))
CNc1ncnc2c1ncn2[C@@H]1O[C@H](COP(=O)(O)OP(=O)(O)OP(=O)(O)OC[C@H]2O[C@@H](n3c[n+](C)c4c(=O)[nH]c(N)nc43)[C@H](O)[C@@H]2O)[C@@H](OP(=O)(O)OC[C@H]2O[C@@H](n3cnc4c(=O)[nH]c(N)nc43)[C@H](O)[C@@H]2O)[C@H]1O [m^7Gppp^m6ApG] | 35.2 ± 0.8 nM | 
C[n+]1cn([C@@H]2O[C@H](COP(=O)(O)OP(=O)(O)OP(=O)(O)OC[C@H]3O[C@@H](n4cnc5c(N)ncnc54)[C@H](O)[C@@H]3O)[C@@H](O)[C@H]2O)c2nc(N)[nH]c(=O)c21 [m^7GpppA] | 178 ± 4.3 nM | 
C[n+]1cn([C@@H]2O[C@H](COP(=O)(O)OP(=O)(O)OP(=O)(O)OC[C@H]3O[C@@H](n4cnc5c(=O)[nH]c(N)nc54)[C@H](O)[C@@H]3OP(=O)(O)OC[C@H]3O[C@@H](n4cnc5c(=O)[nH]c(N)nc54)[C@H](O)[C@@H]3O)[C@@H](O)[C@H]2O)c2nc(N)[nH]c(=O)c21 [m^7GpppGpG] | 22.7 ± 0.9 nM | 
C[n+]1cn([C@@H]2O[C@H](COP(=O)(O)OP(=O)(O)OP(=O)(O)OC[C@H]3O[C@@H](n4cnc5c(N)ncnc54)[C@H](O)[C@@H]3OP(=O)(O)OC[C@H]3O[C@@H](n4cnc5c(=O)[nH]c(N)nc54)[C@H](O)[C@@H]3O)[C@@H](O)[C@H]2O)c2nc(N)[nH]c(=O)c21 [m^7GpppApG] | 26.6 ± 0.9 nM | 
C[n+]1cn([C@@H]2O[C@H](COP(=O)(O)OP(=O)(O)OP(=O)(O)OC[C@H]3O[C@@H](n4ccc(N)nc4=O)[C@H](O)[C@@H]3OP(=O)(O)OC[C@H]3O[C@@H](n4cnc5c(=O)[nH]c(N)nc54)[C@H](O)[C@@H]3O)[C@@H](O)[C@H]2O)c2nc(N)[nH]c(=O)c21 [m^7GpppCpG] | 25.1 ± 0.6 nM | 
CNc1ncnc2c1ncn2[C@@H]1O[C@H](COP(=O)(O)OP(=O)(O)OP(=O)(O)OC[C@H]2O[C@@H](n3c[n+](C)c4c(=O)[nH]c(N)nc43)[C@H](O)[C@@H]2O)[C@@H](OP(=O)(O)OC[C@H]2O[C@@H](n3cnc4c(=O)[nH]c(N)nc43)[C@H](O)[C@@H]2O)[C@H]1OC [m^7Gppp^m6AmpG] | 32.8 ± 0.8 nM | 
GGG (XNA, m7G1; 5'-5' triphosphate between G1 and G2; 2'-O-methyl G2) [m7GpppGmpG] |  | 22.8 ± 0.6 nM
GAG (XNA, m7G1; 5'-5' triphosphate between G1 and A2; 2'-O-methyl A2) [m7GpppAmpG] |  | 45.6 ± 1.5 nM
GCG (XNA, m7G1; 5'-5' triphosphate between G1 and C2; 2'-O-methyl C2) [m7GpppCmpG] |  | 29.9 ± 0.7 nM
